Measurements as given in patent publication US6603057B1, “Heterogenous and homogeneous mouse variants lacking sno gene” (Japan Science and Technology Corporation, priority 1999, dated 2003).

Test system: wild type and sno^+/− mice
Test: Tumor susceptibility: survival after weekly carcinogen DMBA treatment
Assay type: in vivo, mouse
Settings: DMBA weekly to dorsal surface, observation period of 80 days
Protocol: In the next experiment, in order to compare the tumor susceptibility of wild type and sno^+/− mice, the carcinogen 9,10-dimethyl-1,2-benzanthracene (DMBA) was administered every week. […] The major tumor type observed was malignant lymphomas, and fibromas were also found at a lower frequency. Lymphomas in sno^+/− mice were aggressive metastatic malignancies, and generated tumors in the thymus glands [refer to FIGS. 4(b) and (c)]. The fact that these originated from T-cells is due to the tumor cells homogeneously expressing the TCRαβ markers, but not the IgM marker [refer to FIGS. 4(d) and (e)].
DMBA treatments were initiated from the beginning at postnatal day 2-5 and continuing weekly thereafter by administering 50 μl of a solution containing DMBA 1.25 mg per ml acetone to the dorsal surface. Mice were monitored regularly and killed when overall health condition was deteriorated.
At first, 8-10 mice in each cohort were used for collecting histopathological informations, subsequently, the site of tumor and the site of metastatic organ were detected and specified by detailed pathological analysis.

For Cc1c2ccccc2c(C)c2c1ccc1ccccc12 [DMBA, 9,10-dimethyl-1,2-benzanthracene], the survived this treatment (sno^+/− female mice (n=20)) was 30%, the survived this treatment (sno^+/− male mice (n=20)) was 50% and the “survival under this treatment” value (wild-type mice (n=40)) was “most of the wild-type mice (n=40) survived”.
